Experimental data published in patent publication EP0442769A2 (priority 1990, dated 1991).
Like-named read-outs stand apart in the source and are kept apart here.

Experiments:
sites opioides de type µ = target: T1, sites opioides de type µ (Oryctolagus cuniculus, UniProt G1TAQ8); assay: [3H]diprenorphine competition binding, crude membrane fraction of rabbit cerebellum; design: species or system lapin
T1 construct: fraction membranaire brute obtenue à partir de tissu frais (cervelet de lapin, cervelet de cobaye); from tissue; host or cells: rabbit cerebellum (New Zealand rabbits), crude membrane fraction
Procedure: (§1) Les animaux utilisés sont des lapins néo-zélandais d'environ 1500 g et des cobayes tricolores d'environ 300 g.
(§2) La préparation utilisée est une fraction membranaire brute obtenue à partir de tissu frais (cervelet de lapin, cervelet de cobaye) par une méthode standard d'homogénéisation et de centrifugation différentielle. La suspension finale est en tampon tris-HCl (50 mM, pH 7,4) et contient environ 5 mg de protéine par ml.
(§3) [15,16(n)-³H] diprenorphine à 25-30 CI/mmol (Amersham International plc, Amersham, Angleterre).
(§4) Radioligand (0,3 pmol) de [³H] diprenorphine et fraction membranaire brute (0,25 mg de protéine) sont incubés pendant 1 heure à 25°C dans un volume final de 1,0 ml en tampon Tris-HCl (50 mM, pH 7,4) : • (i) en absence de toute drogue compétitrice , • (ii) en présence de 12 concentrations croissantes de la nouvelle drogue et, • (iii) en présence de 10 µmol/l de diprenorphine non radioactive.
(§5) Le contenu de chaque tube est ensuite rapidement filtré (sous vide) sur disques de fibre de verre (Whatman GF/B) disposés sur un jeu de rampes de filtration Millipore modèle 1225. Les filtres sont rincés avec 2 x 3 ml de tampon froid (O-2°C) puis séchés sous une lampe IR pendant 15 minutes. La radioactivité de chaque filtre, dans 3 ml de cocktail Ready-sol MB (Beckman) est comptée avec un compteur à scintillation liquide Kontron modèle MR 300.
(§6) A partir des paramètres mesurés, il est ensuite calculé les différentes constantes Kx pour les sites considérés.
(§7) Ces valeurs ont été calculées à partir des valeurs mesurées des concentrations CI.50 de drogue inhibant de 50 % la liaison à l'équilibre de (3H) diprenorphine utilisée à la concentration fixe de 0,3 nM.

Stability in fresh serum = assay type: in vitro ADME; design: key to Stabilité dans sérum frais 4°C / Stabilité dans sérum frais 37°C: + : stable.; *a: * : stabilité dans le sérum frais à 37°C au bout de 24h : on ne retrouve que 8 à 12%, 78% et 65% de la quantité de départ dans le sérum respectivement pour (a), (b) et (c).; *b: * : stabilité dans le sérum frais à 37°C au bout de 24h : on ne retrouve que 8 à 12%, 78% et 65% de la quantité de départ dans le sérum respectivement pour (a), (b) et (c).; *c: * : stabilité dans le sérum frais à 37°C au bout de 24h : on ne retrouve que 8 à 12%, 78% et 65% de la quantité de départ dans le sérum respectivement pour (a), (b) et (c); details: for Stabilité dans sérum frais 37°C / remaining at 24 h: * = fraction of starting quantity found after 24h, 37°C; for remaining at 24 h: read-out: Stabilité dans sérum frais 37°C
From the text: (§8) Ces composés ont été également testés pour leur absorption membranaire et stabilité érythrocitaire et plasmatique.

GR chargés = assay: Extracellular leak from loaded red blood cells, 24 h incubation; assay type: in vitro ADME
From the text: as §8

membrane érythrocytaire = assay: Membrane adsorption at haematocrit 45%; assay type: in vitro ADME
From the text: as §8

sites opioides de type k = target: T2, sites opioides de type k (Cavia porcellus, UniProt P41144); assay: [3H]diprenorphine competition binding, crude membrane fraction of guinea pig cerebellum; design: species or system cobaye; details: guinea pig cerebellum membranes; for IC50: [3H]diprenorphine 0,3 nM, 1 h at 25°C, (n) in brackets, read-out: I50κ (concentration inhibitrice 50); for Ki: calculated from the measured CI.50, read-out: KIκ (constante de dissociation apparente du composé testé)
T2 construct: fraction membranaire brute obtenue à partir de tissu frais (cervelet de lapin, cervelet de cobaye); from tissue; host or cells: guinea pig cerebellum (tricolour guinea pigs), crude membrane fraction
Procedure: as §1, §2, §3, §4, §5, §6, §7

Stability in haemolysate = assay type: in vitro ADME; design: key: + : stable.; *a: * : stabilité dans le sérum frais à 37°C au bout de 24h : on ne retrouve que 8 à 12%, 78% et 65% de la quantité de départ dans le sérum respectivement pour (a), (b) et (c).; *b: * : stabilité dans le sérum frais à 37°C au bout de 24h : on ne retrouve que 8 à 12%, 78% et 65% de la quantité de départ dans le sérum respectivement pour (a), (b) et (c).; *c: * : stabilité dans le sérum frais à 37°C au bout de 24h : on ne retrouve que 8 à 12%, 78% et 65% de la quantité de départ dans le sérum respectivement pour (a), (b) et (c)
From the text: as §8

[1] = [3H]diprenorphine 0,3 nM, rabbit cerebellum membranes, 1 h at 25°C, (n) in brackets, read-out: I50µ (concentration inhibitrice 50)
[2] = calculated from the measured CI.50, rabbit cerebellum membranes, read-out: KIµ (constante de dissociation apparente du composé testé)

SMILES | IC50 (sites opioides de type µ; [1]) [nM] | Ki (sites opioides de type µ; [2]) [nM] | Stabilité dans sérum frais 4°C (Stability in fresh serum) | Stabilité dans sérum frais 37°C (Stability in fresh serum) | GR chargés : Incubation 24h Fuite extra-cellulaire 4°C (GR chargés) [%] | GR chargés : Incubation 24h Fuite extra-cellulaire 37°C (GR chargés) [%] | Adsorption membranaire à Hte 45% (membrane érythrocytaire) [%] | IC50 (sites opioides de type k) [nM] | Ki (sites opioides de type k) [nM] | Stabilité dans hémolysat 4°C (Stability in haemolysate) | Stabilité dans hémolysat 37°C (Stability in haemolysate) | affinité apparente pour les sites opioïdes µ (sites opioides de type µ; result in words) | remaining at 24 h (Stability in fresh serum) [%] | IC50 (sites opioides de type µ) [nM] | Ki (sites opioides de type µ) [nM]
C=CCN1CC[C@]23c4c5ccc(OS(=O)(=O)O)c4O[C@H]2C(=O)CC[C@@]3(OS(=O)(=O)O)[C@H]1C5 [naloxone-3,14-disulfate] | 20800 | 5200 | + | + | 5 | 50 | 34 | > 100000 | > 25000 | + | + | – | – | – | –
C=CCN1CC[C@]23c4c5ccc(OP(=O)(O)OC)c4O[C@H]2C(=O)CC[C@@]3(O)[C@H]1C5 [naloxone-3-phosphate(OMe)] | 1200 | 260 | + | + | 6 | 40 | 10 | – | – | + | + | – | – | – | –
C=CCN1CC[C@]23c4c5ccc(OP(=O)(O)O)c4O[C@H]2C(=O)CC[C@@]3(O)[C@H]1C5 [naloxone-3-phosphate] | 3.5 ± 0.3 | 0.9 | + | + | 1 | 12 | 0 | – | – | + | + | activité légèrement plus élevée que la naloxone | – | – | –
C=CCN1CC[C@]23c4c5ccc(OS(=O)(=O)O)c4O[C@H]2C(=O)CC[C@@]3(O)[C@H]1C5 [naloxone-3-sulfate] | 4300 | 1070 | – | – | – | – | – | – | – | – | – | – | – | – | –
C=CCN1CC[C@]23c4c5ccc(OP(=O)(O)OP(=O)(O)OP(=O)(O)O)c4O[C@H]2C(=O)CC[C@@]3(O)[C@H]1C5 [naloxone-3-triphopshate] | 21 ± 2 | 5.2 | + | – | 0 | 0 | 22 | 106 ± 15 | 27 | + | + | – | 78 | – | –
O=C1CC[C@@]2(O)[C@H]3Cc4ccc(O)c5c4[C@@]2(CCN3CC2CC2)[C@H]1O5 [naltrexone, reference compound] | – | – | – | – | – | – | – | – | – | – | – | – | – | 1.2 ± 0.2 | 0.3
O=C1CC[C@@]2(OS(=O)(=O)O)[C@H]3Cc4ccc(OS(=O)(=O)O)c5c4[C@@]2(CCN3CC2CC2)[C@H]1O5 [naltrexone-3,14-disulfate] | 7850 | 1960 | + | + | 15 | 70 | 40 | 39000 | 9700 | + | + | – | – | – | –
COP(=O)(O)Oc1ccc2c3c1O[C@H]1C(=O)CC[C@@]4(O)[C@@H](C2)N(CC2CC2)CC[C@]314 [naltrexone-3-phosphate(OMe)] | 130 ± 9 | 33 | + | + | 5 | 40 | 10 | 270 ± 35 | 68 | + | + | – | – | – | –
O=C1CC[C@@]2(O)[C@H]3Cc4ccc(OP(=O)(O)O)c5c4[C@@]2(CCN3CC2CC2)[C@H]1O5 [naltrexone-3-phosphate] | 22 ± 2 | 5.6 | + | – | 1 | 12 | 22 | 30 ± 3 | 7.5 | + | + | – | 8 to 12 | – | –
O=C1CC[C@@]2(O)[C@H]3Cc4ccc(OS(=O)(=O)O)c5c4[C@@]2(CCN3CC2CC2)[C@H]1O5 [naltrexone-3-sulfate] | 1540 | 385 | – | – | – | – | – | 2200 | 550 | – | – | – | – | – | –
O=C1CC[C@@]2(O)[C@H]3Cc4ccc(OP(=O)(O)OP(=O)(O)OP(=O)(O)O)c5c4[C@@]2(CCN3CC2CC2)[C@H]1O5 [naltrexone-3-triphosphate] | 5.2 ± 0.4 | 1.3 | + | – | 0 | 0 | 22 | 15 ± 1.4 | 3.8 | + | + | – | 65 | – | –
